Data: patent US20260158017A1, “KIF18A INHIBITOR” (WIGEN BIOMEDICINE TECHNOLOGY (SHANGHAI) CO., LTD., priority 2021, published 2026)

Biological target: T1, Recombinant human KIF18A (1-467His-tagged) protein (Homo sapiens, UniProt Q8NI77)
T1 construct: Recombinant human KIF18A (1-467His-tagged) protein; His; made in house
Assay: KIF18A enzyme assay (microtubule-stimulated ATPase activity, ADP-Glo)
Type: biochemical
Conditions: 30 nM KIF18A, 75 μM ATP, 30 μg/mL pig microtubules; read-out: Inhibitory activity against KIF18A IC50
How it was run: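 Buffer 15 mM Tris pH 7.5, 10 mM MgCl2, 0.01% Pluronic F-68, 1 μM paclitaxel, 30 μg/mL pig microtubules; reactions at room temperature. IC50 from inhibition relative to DMSO.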

T1 sequence (Q8NI77 1-467): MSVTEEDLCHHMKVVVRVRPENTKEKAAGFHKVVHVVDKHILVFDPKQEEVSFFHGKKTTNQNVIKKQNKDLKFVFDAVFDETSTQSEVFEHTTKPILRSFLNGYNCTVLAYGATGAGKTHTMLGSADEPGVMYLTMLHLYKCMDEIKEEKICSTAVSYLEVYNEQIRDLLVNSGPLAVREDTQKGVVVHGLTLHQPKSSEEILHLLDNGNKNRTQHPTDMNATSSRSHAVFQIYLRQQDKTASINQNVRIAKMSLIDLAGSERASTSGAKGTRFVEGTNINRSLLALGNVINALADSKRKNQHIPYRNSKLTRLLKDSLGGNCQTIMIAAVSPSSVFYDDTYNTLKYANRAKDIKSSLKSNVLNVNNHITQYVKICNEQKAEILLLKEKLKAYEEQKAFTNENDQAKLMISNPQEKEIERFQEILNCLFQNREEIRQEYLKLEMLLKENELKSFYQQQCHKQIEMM
T1 sequence (P02550 whole entry partner): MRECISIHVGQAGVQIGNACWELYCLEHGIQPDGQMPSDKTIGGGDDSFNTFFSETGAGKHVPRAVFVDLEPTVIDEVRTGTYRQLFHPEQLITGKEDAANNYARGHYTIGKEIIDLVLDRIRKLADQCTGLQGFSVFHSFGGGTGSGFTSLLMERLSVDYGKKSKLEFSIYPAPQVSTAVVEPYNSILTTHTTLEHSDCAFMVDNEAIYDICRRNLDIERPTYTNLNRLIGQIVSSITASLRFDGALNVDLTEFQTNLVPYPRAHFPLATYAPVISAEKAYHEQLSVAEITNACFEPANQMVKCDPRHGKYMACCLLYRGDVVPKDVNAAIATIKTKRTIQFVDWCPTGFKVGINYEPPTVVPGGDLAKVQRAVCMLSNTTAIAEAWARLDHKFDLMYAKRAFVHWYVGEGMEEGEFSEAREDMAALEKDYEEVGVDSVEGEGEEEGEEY
T1 sequence (P02554 whole entry partner): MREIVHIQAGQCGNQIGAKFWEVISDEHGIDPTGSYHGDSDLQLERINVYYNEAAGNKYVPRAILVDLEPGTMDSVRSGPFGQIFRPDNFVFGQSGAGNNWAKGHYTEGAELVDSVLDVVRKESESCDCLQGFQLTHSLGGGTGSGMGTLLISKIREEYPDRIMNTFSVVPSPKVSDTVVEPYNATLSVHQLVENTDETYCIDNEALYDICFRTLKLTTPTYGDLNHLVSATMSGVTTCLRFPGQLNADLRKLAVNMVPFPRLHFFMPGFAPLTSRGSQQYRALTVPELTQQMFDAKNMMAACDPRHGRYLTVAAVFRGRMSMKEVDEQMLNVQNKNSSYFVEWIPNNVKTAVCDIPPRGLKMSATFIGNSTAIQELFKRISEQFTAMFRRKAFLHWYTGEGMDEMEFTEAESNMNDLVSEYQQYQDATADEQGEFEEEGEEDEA

| SMILES | IC50 |
| --- | --- |
| O=C(Nc1ccc(OCF)c(N2CCOCC2)n1)c1ccc(S(=O)(=O)NCCO)cc1N1CCC2(CC1)CC2 [Compound 444] | ≤ 100 nM |
| CSc1ccc(NC(=O)c2cnc(NS(=O)(=O)[C@H](C)CO)cc2N2CCC3(CC2)CC3)cc1N1CCC(F)(F)CC1 [Compound 622] | ≤ 100 nM |
| C[C@@H]1CN(c2cc(NC(=O)c3ccc(NS(=O)(=O)[C@@H](C)CO)cc3N3CCC4(CC3)CC4)ccc2OCF)CCO1 [Compound 399] | ≤ 100 nM |
| O=C(Nc1ccc([N+](=O)[O-])c(N2CCC(F)(F)CC2)n1)c1cnc(S(=O)(=O)NCCO)cc1N1CCC2(CC1)CC2 [Compound 145] | ≤ 100 nM |
| O=C(Nc1ccc(S(=O)(=O)NCCO)cc1N1CCC2(CC1)CC2)c1ccc(OCF)c(N2CCC(F)CC2)c1 [Compound 537] | 100 to 500 nM |
| C[C@@H]1CN(c2nc(C(=O)Nc3ccc(NS(=O)(=O)[C@@H](C)CO)cc3N3CCC4(CC3)CC4)ccc2OCF)CCO1 [Compound 559] | ≤ 100 nM |
| O=C(Nc1ccc(OCF)c(OCCC(F)(F)F)c1)c1ccc(S(=O)(=O)NCCO)cc1N1CCC2(CC1)CC2 [Compound 405] | ≤ 100 nM |
| O=C(Nc1ccc([N+](=O)[O-])c(OCCC(F)(F)F)c1)c1ccc(S(=O)(=O)NCCO)cc1N1CCC2(CC1)CC2 [Compound 21] | ≤ 100 nM |
| O=C(Nc1ccc(S(=O)(=O)NCCO)cc1N1CCC2(CC1)CC2)c1ccc([N+](=O)[O-])c(OCCC(F)(F)F)n1 [Compound 181] | 100 to 500 nM |
| O=C(Nc1ccc([N+](=O)[O-])c(N2CCOCC2)n1)c1cnc(NS(=O)(=O)CCO)cc1N1CCC2(CC1)CC2 [Compound 140] | ≤ 100 nM |
| CSc1ccc(NC(=O)c2cnc(NS(=O)(=O)CCO)cc2N2CCC3(CC2)CC3)nc1N1CC(F)(F)C1 [Compound 628] | ≤ 100 nM |
| COc1ccc(NC(=O)c2cnc(NS(=O)(=O)CCO)cc2N2CCC3(CC2)CC3)nc1N1CCO[C@H](C)C1 [Compound 290] | ≤ 100 nM |
| O=C(Nc1ccc(NS(=O)(=O)CCO)cc1N1CCC2(CC1)CC2)c1ccc(OCF)c(N2CC3CC3C2)n1 (centres unmarked) [Compound 554] | ≤ 100 nM |
| O=C(Nc1ccc([N+](=O)[O-])c(N2CCOCC2)n1)c1ccc(S(=O)(=O)NCCO)cc1N1CCC2(CC1)CC2 [Compound 92] | ≤ 100 nM |
| C[C@@H]1CN(c2cc(C(=O)Nc3ccc(NS(=O)(=O)[C@H](C)CO)cc3N3CCC4(CC3)CC4)ccc2[N+](=O)[O-])CCO1 [Compound 48] | 100 to 500 nM |
| O=C(Nc1ccc([N+](=O)[O-])c(OCCC(F)(F)F)c1)c1cnc(NS(=O)(=O)CCO)cc1N1CCC2(CC1)CC2 [Compound 101] | ≤ 100 nM |
| CSc1ccc(NC(=O)c2ccc(NS(=O)(=O)CCO)cc2N2CCC3(CC2)CC3)cc1N1CC2CC2C1 (centres unmarked) [Compound 586] | ≤ 100 nM |
| C[C@@H](CO)S(=O)(=O)Nc1cc(N2CCC3(CC2)CC3)c(C(=O)Nc2ccc(OCF)c(N3CCC(F)(F)CC3)c2)cn1 [Compound 461] | ≤ 100 nM |
| O=C(Nc1ccc([N+](=O)[O-])c(OCCC(F)(F)F)n1)c1cnc(S(=O)(=O)NCCO)cc1N1CCC2(CC1)CC2 [Compound 149] | ≤ 100 nM |
| C[C@@H](CO)S(=O)(=O)Nc1cc(N2CCC3(CC2)CC3)c(C(=O)Nc2ccc(OCF)c(N3CCC(F)(F)CC3)n2)cn1 [Compound 493] | ≤ 100 nM |
| C[C@@H]1CN(c2cc(NC(=O)c3cnc(NS(=O)(=O)[C@@H](C)CO)cc3N3CCC4(CC3)CC4)ccc2OCF)CCO1 [Compound 463] | ≤ 100 nM |

| SMILES | IC50 |
| --- | --- |
| CSc1ccc(NC(=O)c2cnc(NS(=O)(=O)CCO)cc2N2CCC3(CC2)CC3)cc1OCCC(F)(F)F [Compound 613] | ≤ 100 nM |
| CSc1ccc(NC(=O)c2cnc(NS(=O)(=O)CCO)cc2N2CCC3(CC2)CC3)cc1N1CC2CC2C1 (centres unmarked) [Compound 618] | ≤ 100 nM |
| CSc1ccc(NC(=O)c2cnc(NS(=O)(=O)CCO)cc2N2CCC3(CC2)CC3)nc1N1CCC2(CC2)C1 [Compound 630] | ≤ 100 nM |
| C[C@H](CO)NS(=O)(=O)c1ccc(NC(=O)c2ccc([N+](=O)[O-])c(N3CCO[C@H](C)C3)n2)c(N2CCC3(CC2)CC3)c1 [Compound 192] | 100 to 500 nM |
| CC(C)(CO)Nc1nc(NC(=O)c2ccc(NS(=O)(=O)CCO)cc2N2CCC3(CC2)CC3)ccc1[N+](=O)[O-] [Compound 75] | ≤ 100 nM |
| C[C@@H]1CN(c2cc(C(=O)Nc3ccc(S(=O)(=O)N[C@@H](C)CO)cc3N3CCC4(CC3)CC4)ccc2[N+](=O)[O-])CCO1 [Compound 63] | 100 to 500 nM |
| COc1ccc(NC(=O)c2cnc(NS(=O)(=O)CCO)cc2N2CCC3(CC2)CC3)nc1OC1CCC1 [Compound 295] | ≤ 100 nM |
| COc1ccc(NC(=O)c2ccc(NS(=O)(=O)[C@H](C)CO)cc2N2CCC3(CC2)CC3)nc1N1CCO[C@H](C)C1 [Compound 272] | ≤ 100 nM |
| O=C(Nc1ccc(S(=O)(=O)NCCO)cc1N1CCC2(CC1)CC2)c1ccc(OCF)c(N2CCC3(CC3)C2)n1 [Compound 566] | 100 to 500 nM |
| O=C(Nc1cnc(NS(=O)(=O)CCO)cc1N1CCC2(CC1)CC2)c1ccc([N+](=O)[O-])c(N2CCOCC2)c1 [Compound 204] | ≤ 100 nM |
| O=C(Nc1ccc(OCF)c(N2CC(F)(F)C2)n1)c1cnc(NS(=O)(=O)CCO)cc1N1CCC2(CC1)CC2 [Compound 484] | ≤ 100 nM |
| COc1ccc(NC(=O)c2cnc(S(=O)(=O)NCCO)cc2N2CCC3(CC2)CC3)nc1N1CC(F)(F)C1 [Compound 308] | ≤ 100 nM |
| CC1(F)CCN(c2nc(C(=O)Nc3ccc(S(=O)(=O)NCCO)cc3N3CCC4(CC3)CC4)ccc2OCF)C1 (centres unmarked) [Compound 568] | 100 to 500 nM |
| O=C(Nc1ccc(S(=O)(=O)NCCO)cc1N1CCC2(CC1)CC2)c1ccc([N+](=O)[O-])c(N2CC(F)(F)C2)n1 [Compound 180] | 100 to 500 nM |
| COc1ccc(C(=O)Nc2cnc(NS(=O)(=O)[C@H](C)CO)cc2N2CCC3(CC2)CC3)nc1N1CCO[C@H](C)C1 [Compound 368] | ≤ 100 nM |
| O=C(Nc1ccc(OCF)c(N2CCC3(CC3)C2)n1)c1ccc(S(=O)(=O)NCCO)cc1N1CCC2(CC1)CC2 [Compound 438] | ≤ 100 nM |
| O=C(Nc1ccc(OCF)c(OCCC(F)(F)F)c1)c1ccc(NS(=O)(=O)CCO)cc1N1CCC2(CC1)CC2 [Compound 389] | ≤ 100 nM |
| O=C(Nc1ccc([N+](=O)[O-])c(N2CCC(F)(F)CC2)c1)c1cnc(S(=O)(=O)NCCO)cc1N1CCC2(CC1)CC2 [Compound 113] | ≤ 100 nM |
| COc1ccc(C(=O)Nc2ccc(NS(=O)(=O)[C@@H](C)CO)cc2N2CCC3(CC2)CC3)nc1N1CCC(F)(F)CC1 [Compound 333] | ≤ 100 nM |
| COc1ccc(NC(=O)c2ccc(S(=O)(=O)NCCO)cc2N2CCC3(CC2)CC3)nc1NC(C)(C)CO [Compound 283] | ≤ 100 nM |
| CSc1ccc(NC(=O)c2cnc(NS(=O)(=O)CCO)cc2N2CCC3(CC2)CC3)cc1N1CCC(F)(F)CC1 [Compound 609] | ≤ 100 nM |

| SMILES | IC50 |
| --- | --- |
| C[C@H](CO)NS(=O)(=O)c1cc(N2CCC3(CC2)CC3)c(NC(=O)c2ccc([N+](=O)[O-])c(N3CCC(F)(F)CC3)n2)cn1 [Compound 254] | 100 to 500 nM |
| CSc1ccc(NC(=O)c2ccc(NS(=O)(=O)[C@H](C)CO)cc2N2CCC3(CC2)CC3)nc1N1CCO[C@H](C)C1 [Compound 608] | ≤ 100 nM |
| CSc1ccc(NC(=O)c2cnc(NS(=O)(=O)[C@@H](C)CO)cc2N2CCC3(CC2)CC3)nc1N1CCO[C@H](C)C1 [Compound 639] | ≤ 100 nM |
| COc1ccc(C(=O)Nc2ccc(NS(=O)(=O)CCO)cc2N2CCC3(CC2)CC3)nc1N1CC2CC2C1 (centres unmarked) [Compound 330] | ≤ 100 nM |
| O=C(Nc1ccc(OCF)c(OCCC(F)(F)F)c1)c1cnc(NS(=O)(=O)CCO)cc1N1CCC2(CC1)CC2 [Compound 453] | ≤ 100 nM |
| O=C(Nc1cnc(S(=O)(=O)NCCO)cc1N1CCC2(CC1)CC2)c1ccc([N+](=O)[O-])c(N2CC(F)(F)C2)n1 [Compound 244] | 100 to 500 nM |
| CC(C)(CO)Nc1nc(NC(=O)c2cnc(NS(=O)(=O)CCO)cc2N2CCC3(CC2)CC3)ccc1OCF [Compound 491] | ≤ 100 nM |
| O=C(Nc1ccc(NS(=O)(=O)CCO)cc1N1CCC2(CC1)CC2)c1ccc([N+](=O)[O-])c(N2CCC(F)(F)CC2)c1 [Compound 33] | ≤ 100 nM |
| O=C(Nc1cnc(NS(=O)(=O)CCO)cc1N1CCC2(CC1)CC2)c1ccc([N+](=O)[O-])c(N2CCC(F)(F)CC2)n1 [Compound 225] | ≤ 100 nM |
| COc1ccc(NC(=O)c2cnc(NS(=O)(=O)[C@@H](C)CO)cc2N2CCC3(CC2)CC3)nc1N1CCO[C@H](C)C1 [Compound 303] | ≤ 100 nM |
| C[C@@H]1CN(c2cc(NC(=O)c3cnc(NS(=O)(=O)CCO)cc3N3CCC4(CC3)CC4)ccc2[N+](=O)[O-])CCO1 [Compound 98] | ≤ 100 nM |
| COc1ccc(C(=O)Nc2ccc(S(=O)(=O)NCCO)cc2N2CCC3(CC2)CC3)nc1NC(C)(C)CO [Compound 347] | ≤ 100 nM |
| O=C(Nc1ccc([N+](=O)[O-])c(N2CC(F)(F)C2)n1)c1cnc(S(=O)(=O)NCCO)cc1N1CCC2(CC1)CC2 [Compound 148] | ≤ 100 nM |
| O=C(Nc1cnc(NS(=O)(=O)CCO)cc1N1CCC2(CC1)CC2)c1ccc([N+](=O)[O-])c(N2CCOCC2)n1 [Compound 236] | ≤ 100 nM |
| CSc1ccc(NC(=O)c2cnc(NS(=O)(=O)[C@H](C)CO)cc2N2CCC3(CC2)CC3)nc1N1CCC(F)(F)CC1 [Compound 638] | ≤ 100 nM |
| C[C@@H]1CN(c2nc(C(=O)Nc3ccc(NS(=O)(=O)CCO)cc3N3CCC4(CC3)CC4)ccc2[N+](=O)[O-])CCO1 [Compound 162] | ≤ 100 nM |
| C[C@@H](CO)S(=O)(=O)Nc1ccc(C(=O)Nc2ccc(OCF)c(N3CCC(F)(F)CC3)c2)c(N2CCC3(CC2)CC3)c1 [Compound 413] | ≤ 100 nM |
| CSc1ccc(NC(=O)c2ccc(NS(=O)(=O)CCO)cc2N2CCC3(CC2)CC3)nc1OCCC(F)(F)F [Compound 597] | ≤ 100 nM |
| CC1(F)CCN(c2cc(NC(=O)c3ccc(NS(=O)(=O)CCO)cc3N3CCC4(CC3)CC4)ccc2OCF)C1 (centres unmarked) [Compound 392] | ≤ 100 nM |
| COc1ccc(C(=O)Nc2ccc(S(=O)(=O)NCCO)cc2N2CCC3(CC2)CC3)nc1N1CCC2(CC2)C1 [Compound 342] | ≤ 100 nM |
